GI50 and TGI data for six compounds are collected here from PubChem BioAssay (NCI).

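48-hour exposure; five concentrations; linearly interpolated endpoints. Abbreviation: GI50, concentration required for 50% inhibition of growth. At the TGI there is no net growth.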

Among the test systems are SF-295 CNS; XF 498 CNS; DMS 114 small cell lung; M19-MEL melanoma; DLD-1 colon; SNB-78 CNS; LXFL 529 NSCLC; RXF-631 renal; DMS 273 small cell lung; KM20L2 colon; HOP-18 NSCLC.
Common to all, as to assay: NCI anticancer screen, dose series, 48 h

In the case of `COc1ccc(-c2ccc(-c3ccc(C(=N)N)nc3)s2)cc1Cl`, in the experiment on SF-295 CNS, the GI50 is 1.8 µM and the TGI amounted to 3.24 µM.
On to `O=S(OC12CC3CC(CC(C3)C1)C2)c1cc(Cl)cc(Cl)c1OCc1ccccc1` (configuration not stated), for which the TGI with XF 498 CNS, in the experiment on DMS 114 small cell lung, in the experiment on M19-MEL melanoma, in the experiment with DLD-1 colon, with SNB-78 CNS and with LXFL 529 NSCLC was above 100 µM throughout. The compound further registered a TGI in the experiment with RXF-631 renal above 100 µM.
`C=CCN1C(=O)/C(=C/c2ccco2)N=C1SC1OC(COC(C)=O)C(OC(C)=O)C(OC(C)=O)C1OC(C)=O` (configuration not stated): in the experiment on SF-295 CNS, the TGI was above 100 µM.
Same read-out and setting: the same measure for `CC(=O)OCC1OC(OCCCCCCO)C(OC(C)=O)C(OC(C)=O)C1OC(C)=O` (configuration not stated): above 100 µM.
For `O=[N+]([O-])c1ccccc1S(=O)(=O)c1ccccc1`, the TGI in the experiment on SF-295 CNS, in the experiment on XF 498 CNS, with DMS 114 small cell lung, in the experiment with DMS 273 small cell lung, in the experiment with M19-MEL melanoma and with DLD-1 colon was above 100 µM in each case. Besides, the TGI was above 100 µM in the experiment with KM20L2 colon, above 100 µM with HOP-18 NSCLC, above 100 µM in the experiment on LXFL 529 NSCLC and 47 µM in the experiment with RXF-631 renal.
In the experiment on SF-295 CNS, `Cc1ccc(NC(=O)C(Cc2c[nH]c3ccccc23)NC(=O)Oc2ccccc2)cc1C` (configuration not stated) registered a TGI above 100 µM.
